{"source": "patent US9809589B2", "about": "“Crystal form of compound used as mineralocorticoid receptor antagonist and preparation method therefor” (KBP BIOSCIENCES CO., LTD., priority 2012, dated 2017)", "origin": "cited, not measured here", "key": {"[1]": {"target": "T1, androgen receptor (Homo sapiens, UniProt P10275)", "T1 sequence (P10275 1-920)": "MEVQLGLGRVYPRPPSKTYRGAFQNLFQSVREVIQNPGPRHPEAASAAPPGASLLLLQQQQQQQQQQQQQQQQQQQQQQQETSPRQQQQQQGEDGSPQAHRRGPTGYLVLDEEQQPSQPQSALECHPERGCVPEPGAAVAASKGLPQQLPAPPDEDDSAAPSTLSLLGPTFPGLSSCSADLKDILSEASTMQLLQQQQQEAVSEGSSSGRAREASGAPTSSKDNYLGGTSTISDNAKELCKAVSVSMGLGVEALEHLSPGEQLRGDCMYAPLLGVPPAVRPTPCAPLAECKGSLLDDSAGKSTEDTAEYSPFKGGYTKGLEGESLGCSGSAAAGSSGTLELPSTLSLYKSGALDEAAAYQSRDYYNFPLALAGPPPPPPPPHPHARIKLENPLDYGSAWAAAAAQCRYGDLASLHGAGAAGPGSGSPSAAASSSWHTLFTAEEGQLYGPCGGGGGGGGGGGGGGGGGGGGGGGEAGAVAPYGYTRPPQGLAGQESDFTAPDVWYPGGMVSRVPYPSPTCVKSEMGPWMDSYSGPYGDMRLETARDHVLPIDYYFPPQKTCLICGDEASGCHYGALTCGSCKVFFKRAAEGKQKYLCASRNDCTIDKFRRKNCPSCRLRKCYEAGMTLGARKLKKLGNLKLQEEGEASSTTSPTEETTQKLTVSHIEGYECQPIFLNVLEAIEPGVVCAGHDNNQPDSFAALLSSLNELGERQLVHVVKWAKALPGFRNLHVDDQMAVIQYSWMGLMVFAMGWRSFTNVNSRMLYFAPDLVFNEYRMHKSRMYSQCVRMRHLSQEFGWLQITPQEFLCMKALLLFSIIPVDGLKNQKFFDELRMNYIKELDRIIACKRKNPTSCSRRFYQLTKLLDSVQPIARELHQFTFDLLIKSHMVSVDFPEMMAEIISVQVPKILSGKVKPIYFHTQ", "settings": "relative to mineralocorticoid receptor; WO2012022121; cited from earlier work"}, "[2]": {"target": "T2, mineralocorticoid receptor (Homo sapiens, UniProt P08235)", "T2 sequence (P08235 1-984)": "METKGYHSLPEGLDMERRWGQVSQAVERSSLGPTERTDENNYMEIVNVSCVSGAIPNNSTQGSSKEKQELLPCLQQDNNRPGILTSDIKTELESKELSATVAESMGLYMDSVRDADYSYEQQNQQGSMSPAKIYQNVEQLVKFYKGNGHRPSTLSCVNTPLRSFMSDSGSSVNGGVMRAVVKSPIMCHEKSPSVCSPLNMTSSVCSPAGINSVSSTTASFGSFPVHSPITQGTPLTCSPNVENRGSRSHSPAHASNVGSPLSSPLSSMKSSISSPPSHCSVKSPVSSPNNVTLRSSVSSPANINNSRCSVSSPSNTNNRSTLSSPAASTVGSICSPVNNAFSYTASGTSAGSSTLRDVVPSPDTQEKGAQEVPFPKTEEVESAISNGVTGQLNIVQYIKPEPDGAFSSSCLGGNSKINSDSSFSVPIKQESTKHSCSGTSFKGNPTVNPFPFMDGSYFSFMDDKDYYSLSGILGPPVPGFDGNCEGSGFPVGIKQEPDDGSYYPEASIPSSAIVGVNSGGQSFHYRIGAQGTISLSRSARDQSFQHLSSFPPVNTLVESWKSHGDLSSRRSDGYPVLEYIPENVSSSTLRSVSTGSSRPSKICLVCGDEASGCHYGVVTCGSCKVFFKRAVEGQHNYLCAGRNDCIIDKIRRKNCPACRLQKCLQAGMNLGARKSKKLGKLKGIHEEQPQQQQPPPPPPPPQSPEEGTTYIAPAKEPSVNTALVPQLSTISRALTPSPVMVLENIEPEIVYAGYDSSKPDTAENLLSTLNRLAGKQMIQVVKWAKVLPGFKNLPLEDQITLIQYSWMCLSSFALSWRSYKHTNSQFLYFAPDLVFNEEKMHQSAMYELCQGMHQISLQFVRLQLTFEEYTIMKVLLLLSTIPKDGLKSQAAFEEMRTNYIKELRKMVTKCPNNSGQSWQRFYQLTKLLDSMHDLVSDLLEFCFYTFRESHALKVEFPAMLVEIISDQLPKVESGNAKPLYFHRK", "settings": "as disclosed in WO2012022121; cited from earlier work"}, "[3]": {"target": "T3, glucocorticoid receptor (Homo sapiens, UniProt P04150)", "T3 sequence (P04150 1-777)": "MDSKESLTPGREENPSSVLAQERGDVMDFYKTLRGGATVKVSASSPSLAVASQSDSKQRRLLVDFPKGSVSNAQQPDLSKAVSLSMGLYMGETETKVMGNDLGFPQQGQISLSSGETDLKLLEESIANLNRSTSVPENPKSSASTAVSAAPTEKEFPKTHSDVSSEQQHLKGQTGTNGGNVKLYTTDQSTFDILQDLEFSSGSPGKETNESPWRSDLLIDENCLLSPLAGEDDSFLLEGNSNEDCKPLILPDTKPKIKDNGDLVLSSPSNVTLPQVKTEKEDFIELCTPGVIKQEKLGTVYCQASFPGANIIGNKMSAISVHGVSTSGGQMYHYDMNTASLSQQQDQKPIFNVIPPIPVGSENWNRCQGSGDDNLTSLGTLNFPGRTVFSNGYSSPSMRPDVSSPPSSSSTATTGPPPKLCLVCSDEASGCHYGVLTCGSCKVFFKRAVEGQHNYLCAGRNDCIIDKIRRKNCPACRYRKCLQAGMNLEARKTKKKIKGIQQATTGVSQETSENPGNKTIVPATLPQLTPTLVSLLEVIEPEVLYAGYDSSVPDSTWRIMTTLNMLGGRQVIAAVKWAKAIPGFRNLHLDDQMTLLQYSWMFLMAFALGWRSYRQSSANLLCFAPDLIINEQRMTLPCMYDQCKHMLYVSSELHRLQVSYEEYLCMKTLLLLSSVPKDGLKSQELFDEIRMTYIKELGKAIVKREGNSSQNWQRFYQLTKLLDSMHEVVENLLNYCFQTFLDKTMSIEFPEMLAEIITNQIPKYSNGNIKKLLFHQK", "settings": "relative to mineralocorticoid receptor; WO2012022121; cited from earlier work"}}, "data": [{"molecule": "N#Cc1ccc(N2N=C3c4ccc(C(=O)N5CCC(O)CC5)nc4CC[C@@H]3[C@@H]2C2CCCC2)cc1Cl", "note": "[compound represented by Formula (1), 2-chloro-4-[(3S,3aR)-3-cyclopentyl-7-(4-hydroxypiperidin-1-carbonyl)-3,3a,4,5-tetrahydro-2H-pyrazolo[3,4-f]quinolin-2-yl]benzonitrile]", "values": [{"measurement": "Affinity to the androgen receptor", "setting": "[1]", "value": "lower affinity"}, {"measurement": "Binding to the mineralocorticoid receptor", "setting": "[2]", "value": "selectively bind to the mineralocorticoid receptor"}, {"measurement": "Affinity to the glucocorticoid receptor", "setting": "[3]", "value": "lower affinity"}]}]}
